One assay addresses T1, ZIKA protease (Zika virus, UniProt Q32ZE1).
T1 construct: a trypsin-like serine protease domain in the N-terminal region of the flaviviral NS3 proteins
In words: biochemical. Conditions: for inhibition at 1 µM / inhibition at 50 µM: read-out: inhibition of ZIKV.

The next assay deals with T2, DENV protease (Dengue virus type 2, UniProt P29990).
T2 construct: The virus-encoded dengue protease comprises the amino-terminal 180 amino acids of NS3 (NS3pro) of the polyprotein
In words: biochemical. Conditions: read-out: inhibition of DENV. The procedure, abridged: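 DENV protease (100 nM) was pre-incubated 15 min with inhibitors in 50 mM Tris-HCl pH 9.0, 10% ethylene glycol, 0.0016% Brij 58. FRET substrate (50 μM final) started the reaction, monitored 15 min as RFU/s slope. IC50 came from triplicate means versus concentration.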

For assay [1], the target named is T3, WNV protease (West Nile virus, UniProt P06935).
T3 construct: a trypsin-like serine protease domain in the N-terminal region of the flaviviral NS3 proteins
T3 sequence (P06935 1424-1463): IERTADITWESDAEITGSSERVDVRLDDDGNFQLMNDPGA
T3 sequence (P06935 1502-1679): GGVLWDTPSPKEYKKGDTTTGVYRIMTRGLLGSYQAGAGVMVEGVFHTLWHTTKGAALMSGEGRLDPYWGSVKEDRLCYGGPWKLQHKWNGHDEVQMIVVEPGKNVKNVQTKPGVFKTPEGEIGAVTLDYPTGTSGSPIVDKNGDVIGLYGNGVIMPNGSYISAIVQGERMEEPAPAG
In words: WNV protease assay (analogous procedure). The format is biochemical. Conditions: at 50 μM. Summed up:
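Adapted from the DENV protease assay: inhibitors preincubated 15 min with protease (DENV at 100 nM) in 50 mM Tris-HCl pH 9.0, 10% ethylene glycol, 0.0016% Brij 58, then FRET substrate (50 μM final) added.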

Assay [2] has as its target T3, WNV protease. Briefly: WNV protease assay (analogous procedure). The format is biochemical. Particulars: read-out: IC50 for WNNV.
The next assay concerns the target human Trypsin (Homo sapiens, UniProt P07477). In words: Selectivity screening, human serine protease trypsin. The format is biochemical. Conditions: read-out: inhibition of human Trypsin. The procedure:
By catalytic activity of the protease, the cleaved substrate results in increased fluorescence that can be monitored using a BMG Labtech Fluostar OPTIMA Microtiter fluorescence plate reader (excitation wavelength of 320 nm and a monitored emission wavelength of 405 nm). Dilutions were made starting from 10 mM stock solutions in DMSO and final concentrations were measured in triplicates. The inhibitors were preincubated for 15 min with DENV protease (100 nM) in the assay buffer (50 mM Tris-HCl pH 9.0, ethylene glycol (10% v/v), and 0.0016% Brij 58). The enzymatic reaction was initiated by the addition of the FRET substrate (final concentration 50 μM) to obtain a final assay volume of 100 μL per well. The enzymatic activity was monitored for 15 min and determined as a slope of relative fluorescence units per second (RFU/s) for each concentration. The mean of the triplicates were plotted against the corresponding concentration in CDDVault to determine the IC50-values. Analogous procedures were used to determine the inhibitory potency on WNV (Kühl et al., J. Med. Chem. 2020, 63 (15): 8179-8197) and ZIKA protease (Nitsche et al., ACS Med. Chem. Lett. 2019 Feb. 14; 10 (2): 168-174). For selectivity screening of active candidates, similar biochemical assays with human serine proteases trypsin (Weigel et al., J. Med. Chem. 2015, 58 (19), 7719-7733.) and/or thrombin (Nitsche et al., J. Med. Chem. 2013, 56 (21), 8389-8403) were used.

In the next assay the target is human Thrombin (Homo sapiens, UniProt P00734). Briefly: Selectivity screening, human serine protease thrombin. The format is biochemical. Conditions: at 5 μM; read-out: inhibition of human Thrombin.

Where a SMILES comes first, the peptide text is derived from it. [ ]: non-standard residue; d: D form. The star is where a group is joined. Palmitoyl = CCCCCCCCCCCCCCCC(=O)*; hPhe = N[C@@H](CCc1ccccc1)C(=O)O; β3hK = NCCCC[C@H](N)CC(=O)O

T1 sequence (Q32ZE1 1499-1676): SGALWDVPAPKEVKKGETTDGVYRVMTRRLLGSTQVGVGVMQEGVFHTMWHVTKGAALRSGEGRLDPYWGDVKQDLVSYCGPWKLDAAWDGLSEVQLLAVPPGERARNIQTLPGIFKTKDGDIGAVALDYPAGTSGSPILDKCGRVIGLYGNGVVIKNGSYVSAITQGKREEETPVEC
T1 sequence (Q32ZE1 1421-1460): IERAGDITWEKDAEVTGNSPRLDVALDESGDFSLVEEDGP
T2 sequence (P29990 1398-1437): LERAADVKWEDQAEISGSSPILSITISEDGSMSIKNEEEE
T2 sequence (P29990 1476-1653): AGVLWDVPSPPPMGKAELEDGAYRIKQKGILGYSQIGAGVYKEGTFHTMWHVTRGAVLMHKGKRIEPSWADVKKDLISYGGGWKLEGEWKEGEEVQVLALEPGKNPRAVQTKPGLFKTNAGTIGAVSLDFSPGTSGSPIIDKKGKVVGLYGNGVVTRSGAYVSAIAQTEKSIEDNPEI

With `CCCCCCCCCCCCCCCC(=O)N[C@@H](CCCNC(=N)N)C(=O)N[C@@H](C)C(=O)N[C@@H](CCc1ccccc1)C(N)=O` [compound 51] (Palmitoyl-Arg-Ala-[hPhe]-NH2), in the assay on ZIKV, the EC50 is no more than 10 µM. Further, the EC50 with West Nile virus was no more than 25 µM. On ZIKA protease, the IC50 is no more than 25 µM, the inhibition at 1 µM was no less than 10% and the inhibition at 50 µM is no less than 65%. At DENV protease, the inhibition at 1 µM is no less than 20% and the inhibition at 50 µM is no less than 25%.
Compound `CCCCCCCCCCCCCCCC(=O)N[C@@H](CCCNC(=N)N)C(=O)N[C@@H](CC(N)=O)C(=O)N[C@@H](Cc1ccccc1)C(N)=O` [compound 50] (Palmitoyl-Arg-Asn-Phe-NH2) showed an EC50 in the assay on ZIKV of no more than 10 µM. Moreover, the EC50 in the assay with West Nile virus was no more than 25 µM. Besides, at ZIKA protease, the IC50 was no more than 25 µM, the inhibition at 1 µM is no less than 10% and the inhibition at 50 µM was no less than 65%. At DENV protease, the inhibition at 1 µM is no less than 20% and the inhibition at 50 µM is no less than 25%.
Turning to `CCCCCCCCCCCCCCCC(=O)N[C@H](CCCCN)C(=O)N1CCC[C@H]1C(=O)N[C@@H](C)C(=O)N[C@@H](Cc1c[nH]c2ccccc12)C(N)=O` [compound 196] (Palmitoyl-[dK]PAW-NH2), the results for the inhibition at 50 µM at WNV protease [1], at ZIKA protease and on DENV protease were no less than 25%, no less than 65% and no less than 25%, respectively. Also, the EC50 was no more than 10 µM with ZIKV and no more than 25 µM with West Nile virus. The IC50 is no more than 40 µM on WNV protease [2] and no more than 25 µM against ZIKA protease. In addition, the values for the inhibition at 5 µM at human Trypsin and on human Thrombin were less than 10% and less than 5%, respectively. The inhibition at 25 µM on human Trypsin is less than 20%.
For the compound `CCCCCCCCCCCCCCCC(=O)N[C@@H](CCCCN)C(=O)N[C@@H](C)C(=O)N[C@@H](C)C(=O)N[C@@H](CCCCN)C(=O)O` [compound 189] (Palmitoyl-KAAK-OH), the EC50 with ZIKV is no more than 10 µM; in the assay with West Nile virus it was no more than 25 µM. Besides, the IC50 on WNV protease [2] is no more than 40 µM; at ZIKA protease, no more than 25 µM. Moreover, at ZIKA protease, the inhibition at 1 µM is no less than 10%. For the same compound, the inhibition at 50 µM at ZIKA protease is no less than 65%; at DENV protease it was no less than 25%. The inhibition at 5 µM on human Trypsin is less than 10%; on human Thrombin, less than 5%. Besides, the inhibition at 25 µM at human Trypsin is less than 20%.
Turning to `CCCCCCCCCCCCCCCC(=O)N[C@@H](CCCCC(=N)N)C(=O)N[C@@H](Cc1c[nH]cn1)C(N)=O` [compound 170], the inhibition at 50 µM against WNV protease [1] was no less than 25%; at ZIKA protease, no less than 65%; on DENV protease, no less than 25%. Also, the EC50 in the assay with ZIKV was no more than 10 µM; in the assay with West Nile virus it was no more than 25 µM. Moreover, the values for the IC50 at WNV protease [2] and on ZIKA protease were no more than 40 µM and no more than 25 µM, respectively. In addition, the inhibition at 5 µM was less than 10% at human Trypsin and less than 5% on human Thrombin. At human Trypsin, the inhibition at 25 µM was less than 20%.
Take `CCCCCCCCCCCCCCCC(=O)N[C@H](CCCNC(=N)N)C(=O)N[C@@H](CCC(N)=O)C(=O)N[C@@H](Cc1ccccc1)C(N)=O` [compound 44] (Palmitoyl-[dR]-Gln-Phe-NH2): the inhibition at 50 µM on WNV protease [1] was no less than 25%; on ZIKA protease, no less than 65%; at DENV protease, no less than 25%. Further, the EC50 with ZIKV is no more than 10 µM; with West Nile virus it was no more than 25 µM. Further, the IC50 at WNV protease [2] was no more than 40 µM; against ZIKA protease, no more than 25 µM. Moreover, at ZIKA protease, the inhibition at 1 µM was no less than 10%. In addition, the results for the inhibition at 5 µM at human Trypsin and on human Thrombin were less than 10% and less than 5%, respectively. Also, at human Trypsin, the inhibition at 25 µM was less than 20%.
Take `CCCCCCCCCCCCCCCC(=O)N[C@@H](CCCCN)CC(=O)N[C@@H](C)C(=O)N[C@H](C)C(=O)N[C@@H](CCCCN)C(N)=O` [compound 114] (Palmitoyl-[β3hK]A[dA]K-NH2): the EC50 was no more than 10 µM with ZIKV and no more than 25 µM in the assay on West Nile virus. For the same compound, the values for the IC50 at WNV protease [2] and against ZIKA protease were no more than 40 µM and no more than 25 µM, respectively. Also, the inhibition at 1 µM was no less than 10% at ZIKA protease and no less than 20% on DENV protease. Besides, the inhibition at 50 µM on ZIKA protease is no less than 65%; on DENV protease, no less than 25%. Also, the inhibition at 5 µM on human Trypsin was less than 10%. Moreover, on human Trypsin, the inhibition at 25 µM was less than 20%.
`CCCCCCCCCCCCCCCC(=O)N[C@@H](CCCNC(=N)N)C(=O)N[C@@H](CCC(N)=O)C(=O)N[C@@H](CCc1ccccc1)C(N)=O` [compound 53] (Palmitoyl-Arg-Gln-[hPhe]-NH2): the EC50 in the assay with ZIKV was no more than 10 µM; in the assay with West Nile virus, no more than 25 µM. In addition, the IC50 on ZIKA protease is no more than 25 µM. Moreover, the results for the inhibition at 50 µM on ZIKA protease and at DENV protease were no less than 65% and no less than 25%, respectively.
Consider `CCCCCCCCCCCCCCCC(=O)N[C@@H](CCCNC(=N)N)C(=O)N[C@@H](CCC(N)=O)C(=O)N[C@H](Cc1ccccc1)C(N)=O` [compound 49] (Palmitoyl-Arg-Gln-[dF]-NH2), for which the concentration for a half-maximal effect (EC50) in the assay with ZIKV was no more than 10 µM. At ZIKA protease, the IC50 is no more than 25 µM, the inhibition at 1 µM is no less than 10% and the inhibition at 50 µM is no less than 65%. Besides, on DENV protease, the inhibition at 1 µM was no less than 20% and the inhibition at 50 µM was no less than 25%.
Compound `CCCCCCCCCCCCCCCC(=O)N[C@@H](C)C(=O)N[C@@H](CCCNC(=N)N)C(=O)N[C@@H](CCC(N)=O)C(=O)N[C@@H](Cc1ccccc1)C(N)=O` [compound 54] (Palmitoyl-ARQF-NH2) yielded a concentration giving a half-maximal response (EC50) with ZIKV of no more than 10 µM. The same compound returned an EC50 with West Nile virus of no more than 25 µM. On ZIKA protease, the IC50 was no more than 25 µM, the inhibition at 1 µM was no less than 10% and the inhibition at 50 µM was no less than 65%. The inhibition at 50 µM at DENV protease is no less than 25%.
`CCCCCCCCCCCCCCCC(=O)N[C@@H](CCCCN)CN1CCC[C@H]1C(=O)N[C@@H](C)C(=O)N[C@H](CCc1ccccc1)C(N)=O` [compound 118]: the inhibition at 50 µM against WNV protease [1] is no less than 25%; on ZIKA protease it was no less than 65%; on DENV protease, no less than 25%. The EC50 in the assay with ZIKV was no more than 10 µM; in the assay with West Nile virus it was no more than 25 µM. For the same compound, the IC50 on WNV protease [2] was no more than 40 µM; at ZIKA protease, no more than 25 µM. For the same compound, the inhibition at 1 µM on ZIKA protease was no less than 10%. Moreover, the inhibition at 5 µM at human Trypsin is less than 10%; at human Thrombin it was less than 5%. In addition, the inhibition at 25 µM on human Trypsin is less than 20%.

Values taken from US20250059231A1, “Protease inhibitors” (priority 2021, published 2025).
